“Also recorded” adds a separate entry of the source.
What was measured:
[1] = test system: AZOOR; settings: reported case, administration for two weeks; cited from earlier work
[2] = test system: AZOOR; assay: Clinical case: therapeutic effect on AZOOR, static visual field examination (Humphrey visual field analyzer); type: in vivo, human patient; settings: person
Description: Example of Clinical Trial (Therapeutic Effect on AZOOR)
The patient became aware of dark and blurred vision in the center of their visual field on Sep. 1, 1999, and visited Ohyachi Kyoritsu Eye Clinic on September 4 in the same year. […] ERG was subnormal and normal for the right and left eyes, respectively. […] FAG detected mild leakage of fluorescein from the optic disc of the right eye. In view of these observations, optic nerve disorder was suspected and the patient was made to visit a brain surgeon in the neighborhood to receive CT and MRT examinations. However, no abnormality was found. […] To treat the eye symptom, the clinic prescribed oral medications such as drug for ameliorating circulation for a while, but no improvement of visual field was observed. Thus, on Oct. 1, 1999, the patient was referred to the Department of ophthalmology at Sapporo Medical University, School of Medicine for close examination.
Visual acuity was Vd=1.2 and Vs=1.2. Although pupils were round and equal in size, the right eye was RAPD(+) but no oculomotor abnormalities were observed. […] In the static visual field examination, reduction of the sensitivity in the central visual field was observed.
Oral administration of prednisolone (40 mg/day) was started on Oct. 1, 1999. The patient became aware of dark and blurred vision also in the center of the visual field of their left eye on Oct. 20, 1999. […]

[3] = launched ten years ago; cited from earlier work
[4] = test system: apoptosis caused by CAR; assay: Therapeutic effect on cancer-associated neuropathy: ERG in rats given anti-recoverin and anti-hsp70 antibodies into the vitreous body; type: in vivo, Lewis rats; settings: nilvadipine 3.2 mg/kg/day peritoneal for two weeks with antibody infusion into vitreous body; follow-up five weeks; 24 h light; FIG. 1
Description: Example of Experiment (Therapeutic Effect on Cancer-Associated Neuropathy)
Test animal: Lewis rats (8 weeks of age) Treatment group 5 animals (10 eyes) Control group 5 animals (10 eyes)
Photoenvironment: Apoptosis (cell death) was induced under light for 24 hours.
Test drugs: Nilvadipine (3.2 mg/kg/day) by peritoneal administration (dissolving solution) polyethylene glycol 400: ethanol:water=1:1:2 Predonine (0.6 μg/kg/day) by intramuscular injection (dissolving solution) PBS (phosphate buffer solution) Cyclosporine A (10 mg/kg/day) by intramuscular injection (dissolving solution) olive oil
Antibodies: anti-recoverin antibody (5 μl/eye) anti-hsp70 antibody (5 μl/eye)
Test drugs were administered for two weeks along with infusion of antibodies into vitreous body of the eye.
Follow-up observation was performed for five weeks after the start of administration. PBS alone was administered to the control group.
In FIG. 1, the vertical axis represents ERG (electroretinogram) amplitude, and the horizontal axis is the lapse of time in weeks. Δ: nilvadipine group; □: predonine group; ⋄: cyclosporin A group; and ◯: control group.

In the case of `Nc1nc2c(ncn2COCCO)c(=O)[nH]1` [aciclovir], the “progress of visual field defect in the other eye” value [1] is given as “stopped”.
In the case of `COC(=O)C1=C(C#N)NC(C)=C(C(=O)OC(C)C)C1c1cccc([N+](=O)[O-])c1` (centres unmarked) [nilvadipine, isopropyl 6-cyano-5-methoxycarbonyl-2-methyl-4-(3-nitrophenyl)-1,4-di hydropyridine-3-carboxylate ester], the “static visual field / visual sensitivity after nilvadipine” value ([2]; two months after start of oral nilvadipine (Depo-Medrol sub-Tenon's injection three days earlier), FIGS. 4 and 5) is given as “remarkable improvement of visual sensitivity”, the side effects [3] is given as “no noteworthy serious side effects” and the “ERG (electroretinogram) amplitude, effectiveness compared with the other test drugs” value [4] is given as “more effective than predonine and cyclosporin A”.
For `C[C@]12C=CC(=O)C=C1CC[C@@H]1[C@@H]2[C@@H](O)C[C@@]2(C)[C@H]1CC[C@]2(O)C(=O)CO` [prednisolone], the “visual field defect under oral prednisolone” value ([2]; oral prednisolone 40 mg/day reduced to 10 mg/day, FIGS. 2 and 3) was “no amelioration of the visual field defect; also recorded: could not improve the visual field”.

Reference: US20030114498A1, “Remedies for malignant tumor-concomitant neurosis and azoor or analogous diseases thereof” (priority 2002, published 2003)
